Measured values taken from patent publication US20210213104A1, “GLUCAGON AND GLP-1 CO-AGONISTS FOR THE TREATMENT OF CHRONIC KIDNEY DISEASE AND DIABETIC KIDNEY DISEASE IN TYPE 2 DIABETES” (MEDIMMUNE LIMITED, priority 2020, published 2021).

Tests used:
Type in all cases: in vivo, human
[1] = tested on: subjects with T2DM and renal impairment; assay: Phase 2a: anti-drug antibody (ADA) screening assay
Method: Blood samples were collected to evaluate anti-drug antibody (ADA) response to Cotadutide. A screening assay in the form of a traditional ligand-binding “birding” assay using electrochemiluminescence was used to determine ADA-positive samples.
Development of ADA and titres (in any subjects testing positive) were assessed (As-treated population). No subjects tested positive for ADA at baseline. A total of 2 subjects (4.9%) were ADA positive post-baseline (both subjects [9.5%] in the Cotadutide dose group). […] 1 subject was ADA positive at Day 12 (titer ≤5) but negative at subsequent visits. One subject was ADA positive at Day 32 (titer=2560) and remained positive at the Day 60 follow-up visit (titer=160); at 6 months after their last visit; the antibody titer was 10, and therefore, no additional follow-up was deemed necessary for this subject.

[2] = tested on: subjects with T2DM and renal impairment; assay: Phase 2a: adverse events
Method: Only serious adverse events (SAEs) associated with protocol-related procedures were collected form time of signature of informed consent until the stat of the treatment period. All adverse events (AEs) were collected during the treatment period and follow-up period (Day 60±5). AEs and SAEs were graded by severity and relationship to Cotadutide or placebo, and SAEs were assessed for relationship to protocol procedures.

[3] = tested on: subjects with T2DM and renal impairment; assay: Phase 2a: fasting glucose blood test; conditions: ITT; for Fasting Glucose LS Mean Change / Fasting Glucose Change from Baseline, Mean / Fasting Glucose Change from Baseline, Median / Fasting Glucose Difference in LS Mean Change (vs Placebo): Day 1 to Day 32; for Fasting Glucose LS Mean Change: ANCOVA
Method: Cotadutide was titrated from 50 μg up to 300 μg and administered once daily by subcutaneous (SC) injection over 32 days.
Cotadutide was administered at 50 μg once daily for 4 days, followed by 100 μg daily for 7 days, 200 μg daily for 7 days, and 300 μg daily for 14 days (n=20). Placebo was administered one daily for 32 days (n=20). Cotadutide and placebo were administered in the morning. Dosing commenced following predose baseline vital signs, blood tests (including HbA1c), an electrocardiogram (ECG), body weight measurement, and bioimpedance spectroscopy (BIS). Subjects then returned for daily dosing or remained overnight locally until Day 5, and thereafter, had visits at weekly intervals until a maintenance dose of 300 μg was established. Thus, Cotadutide or placebo was administered at the study site by study personal for the first four doses and on site on Days 5, 12, 19, and 32. At all other times, subjects preformed dosing at home.
Blood samples were collected to evaluate blood glucose (fasting) and HbA1c levels.
Fasting glucose was measured from baseline (Day 1) to the end of treatment (Day 32). […] LS mean reduction of fasting glucose from baseline was more apparent in subjects in the Insulin Dose <20 U/day subgroup compared to Insulin Dose ≥20 U/day subgroup.

[4] = tested on: subjects with T2DM and renal impairment; assay: Phase 2a: blood pressure and heart rate (ABPM and office-based)
Text: After instruction, subjects set up and applied an ambulatory blood pressure monitoring (ABPM) device. The subjects were advised to undergo normal daily activities while wearing the cuff and to avoid any strenuous forms of activity, bathing, or showering while wearing the cuff. The subjects were advised to remain still during the measurement with the arm relaxed at heart level. During ABPM, systolic BP, diastolic BP, heart rate pressure, heart rate, and mean arterial pressure readings were recorded over a period of 24 hours.
Based on post-hoc analysis, ABPM measurements were as follows: mean change from baseline to Day 32: −1.15 mmHg vs 2.21 mmHg (systolic, Cotadutide vs Placebo) and 2.54 mmHg vs 1.84 mmHg (diastolic, Cotadutide vs Placebo). Increases in supine blood pressure from baseline were also observed after 32 days of treatment: 1.44 mmHg vs 8.69 mmHg (systolic, Cotadutide vs placebo) and 0.57 mmHg vs 3.40 mmHg (diastolic, Cotadutide vs placebo); however, these changes were also not clinically significant and were numerically greater in the placebo group.
Based on office-based measurement, increases in postural blood pressure difference were observed after 32 days of treatment: 8.9 mmHg vs 0 1 mmHg (systolic, Cotadutide vs placebo) and 0.8 mmHg vs 1 8 mmHg (diastolic, Cotadutide vs placebo); however, these changes were not clinically significant.
By Day 32, the LS mean change from baseline in pulse rate (office-based measure) was an increase of 14.13 bpm for subjects in the Cotadutide dose group and 3.14 bpm for subjects in the placebo dose group (p <0.001). […] Mean heart rate changes from baseline to Day 32 were numerically greater while asleep (13.06 bpm vs −2.28 bpm) compared to awake (10.78 bpm vs −0.80 bpm) for subjects on Cotadutide vs placebo, respectively.

[5] = tested on: patients with T2DM and chronic kidney disease (CKD) stage G3; assay: Phase 2a: C-peptide levels; conditions: over 32 days; P<0.001
Method: Over 32 days, 21 patients received once-daily subcutaneous cotadutide (n=21) titrated up to 300 μg, and 20 patients received placebo (PBO). […] Serious adverse events (AEs) were balanced between treatment arms; treatment-related AEs were more frequent with cotadutide (71%) vs PBO (35%). The most common AEs were nausea (cotadutide, 33%; PBO, 20%) and vomiting (cotadutide, 24%; PBO, 5%). […] Thus, in patients with T2DM and chronic kidney disease, cotadutide improved overall glycemic control and glucose responses to an MMTT with acceptable tolerability. Improvements in albuminuria indicate that cotadutide can slow long-term progression of CKD.

[6] = office-based measurement, after 32 days

With CCCCCCCCCCCCCCCC(=O)N[C@@H](CCC(=O)NCCCC[C@H](NC(=O)[C@H](CC(=O)O)NC(=O)[C@H](CO)NC(=O)[C@@H](NC(=O)[C@H](Cc1ccccc1)NC(=O)[C@@H](NC(=O)CNC(=O)[C@H](CCC(N)=O)NC(=O)[C@H](CO)NC(=O)[C@@H](N)Cc1c[nH]cn1)[C@@H](C)O)[C@@H](C)O)C(=O)N[C@@H](CO)C(=O)N[C@@H](CCC(=O)O)C(=O)N[C@@H](Cc1ccc(O)cc1)C(=O)N[C@@H](CC(C)C)C(=O)N[C@@H](CC(=O)O)C(=O)N[C@@H](CO)C(=O)N[C@@H](CCC(=O)O)C(=O)N[C@@H](CCCNC(=N)N)C(=O)N[C@@H](C)C(=O)N[C@@H](CCCNC(=N)N)C(=O)N[C@@H](CC(=O)O)C(=O)N[C@@H](Cc1ccccc1)C(=O)N[C@H](C(=O)N[C@@H](C)C(=O)N[C@@H](Cc1c[nH]c2ccccc12)C(=O)N[C@@H](CC(C)C)C(=O)N[C@@H](CCC(=O)O)C(=O)N[C@@H](C)C(=O)NCC(=O)NCC(=O)O)C(C)C)C(=O)O [Cotadutide] the “ADA titer, one subject” value ([1]; 6 months after last visit) was 10, the “subjects ADA positive post-baseline, number” value ([1]; As-treated population) was 2 subjects and the “subjects ADA positive post-baseline, percentage of dose group” value ([1]; As-treated population) was 9.5%. The “ADA titer, one subject” value ([1]; Day 12, negative at subsequent visits) was no more than 5, the “ADA titer, one subject” value ([1]; Day 32) was 2560 and the “ADA titer, one subject” value ([1]; Day 60 follow-up visit) was 160. For the same compound, the “treatment-boosted ADA” value ([1]; baseline titer boosted 4-fold or higher) was “No subjects”, the deaths ([2]; diabetic ketoacidosis and cholecystitis, deemed related) was “one death” and the “Serious adverse events (SAEs) vs placebo” value ([2]; in vivo) was “balanced”. The “TEAE that led to withdrawal” value ([2]; in vivo) was “two subjects”, the “incidence of overall TEAEs and product-related TEAEs vs placebo” value ([2]; in vivo) was “higher” and the “most frequently reported TEAEs (preferred term)” value ([2]; in vivo) was “nausea, vomiting, diarrhea, and dyspepsia”. For the same compound, the “nausea, frequency” value ([2]; in vivo) was 33%, the “treatment-related AEs, frequency” value ([2]; in vivo) was 71% and the “vomiting, frequency” value ([2]; in vivo) was 24%. The “Fasting Glucose LS Mean Change” value ([3]; Insulin Dose < 20 U/day) was -32.24 mg/dL, the “Fasting Glucose LS Mean Change” value ([3]; Insulin Dose ≥ 20 U/day) was -12.28 mg/dL and the “Fasting Glucose LS Mean Change” value ([3]; Total) was -19.55 mg/dL. The “Fasting Glucose Change from Baseline, Mean” value (shortened to “Fasting Glucose Change … Mean”) ([3]; Insulin Dose < 20 U/day) was -31.79 mg/dL, the “Fasting Glucose Change from Baseline, Median” value ([3]; Insulin Dose < 20 U/day) was -39.64 mg/dL and the “Fasting Glucose Difference in LS Mean Change (vs Placebo)” value ([3]; Insulin Dose < 20 U/day) was -28.11 mg/dL. For the same compound, the “Fasting Glucose Change … Mean” value ([3]; Insulin Dose ≥ 20 U/day) was -9.39 mg/dL, the “Fasting Glucose Change from Baseline, Median” value ([3]; Insulin Dose ≥ 20 U/day) was -9.01 mg/dL and the “Fasting Glucose Difference in LS Mean Change (vs Placebo)” value ([3]; Insulin Dose ≥ 20 U/day) was -15.02 mg/dL. The “Fasting Glucose Change … Mean” value ([3]; Total) was -17.64 mg/dL, the “Fasting Glucose Change from Baseline, Median” value ([3]; Total) was -19.82 mg/dL and the “Fasting Glucose Difference in LS Mean Change (vs Placebo)” value ([3]; Total) was -20.15 mg/dL. The “Fasting Glucose, Day 32, Mean” value ([3]; Insulin Dose < 20 U/day) was 125.75 mg/dL, the “Fasting Glucose, Day 32, Median” value ([3]; Insulin Dose < 20 U/day) was 125.24 mg/dL and the “Fasting Glucose, Day 32, Mean” value ([3]; Insulin Dose ≥ 20 U/day) was 159.03 mg/dL. The “Fasting Glucose, Day 32, Median” value ([3]; Insulin Dose ≥ 20 U/day) was 141.91 mg/dL, the “Fasting Glucose, Day 32, Mean” value ([3]; Total) was 146.77 mg/dL and the “Fasting Glucose, Day 32, Median” value ([3]; Total) was 139.66 mg/dL. The “Mean heart rate change from baseline to Day 32, asleep” value ([4]; ABPM) was 13.06 bpm, the “Mean heart rate change from baseline to Day 32, awake” value ([4]; ABPM) was 10.78 bpm and the “LS mean change from baseline in pulse rate (office-based measure)” value ([4]; Day 32) was 14.13 bpm. For the same compound, the “changes in blood pressure” value ([4]; after 32 days of treatment) was “no clinically or statistically significant changes”, the “supine diastolic blood pressure, increase from baseline” value ([4]; after 32 days of treatment) was 0.57 mmHg and the “supine systolic blood pressure, increase from baseline” value ([4]; after 32 days of treatment) was 1.44 mmHg. The “changes in blood pressure” value ([4]; after 32 days of treatment, listed as cotadutide) was “no significant changes”, the Pulse rate increase ([4]; by day 32, P<0.001) was 11 beats per minute and the “differences in heart rate from baseline” value ([4]; end of the study (Day 60)) was “no meaningful differences”. The “increase in postural blood pressure difference, diastolic” value [4, 6] was 0.8 mmHg, the “increase in postural blood pressure difference, systolic” value [4, 6] was 8.9 mmHg and the “24-hour heart rate by ABPM, mean increase from baseline to Day 32” value ([4]; post-hoc analysis) was 11.85 bpm. The “ABPM diastolic blood pressure, mean change from baseline to Day 32” value ([4]; post-hoc analysis) was 2.54 mmHg, the “ABPM systolic blood pressure, mean change from baseline to Day 32” value ([4]; post-hoc analysis) was −1.15 mmHg and the “C-peptide levels, LS mean change vs PBO” value [5] was 0.88 µg/L.
